“Also recorded” adds a separate entry of the source. One block for each molecule: values may come before it.
Columns and labels:
[1] = cited from earlier work
[2] = system: transhepatic transport of ^11C—CSar; settings: Pig 1
Description: Pigs 1 and 2 underwent 90-min dynamic PET/CT recordings (list-mode) using intravenous administration of 400 MBq ^11C—CSar. […] In Pig 2, a second ^11C—CSar administration was given to determine the biodistribution of the tracer by means of whole-body PET/CT recordings. In both pigs, at least 6 half-lives of the ^11C-isotope (half-live: 20.4 min) were allowed to pass between tracer administrations.
The decay-corrected dynamic PET data were reconstructed using the iterative TrueX algorithm (3 iterations, 21 subsets) and post-filtered using a 3 mm Gaussian filter yielding 3D-images of 168×168×109 voxels. Time-activity curves (TACs) were generated from volumes of interest (VOIs) drawn in liver tissue, intrahepatic bile ducts, and choledochus using fused PET/CT images.

[3] = Dynamic ^11C—CSar PET/CT in patients with cholestasis; type: in vivo, human; settings: patient with BRIC-1 cholestasis; intravenous infusion
Excerpt: Two dynamic PET/CT studies in humans have been performed; one in a patient with inherited cholestasis and the other in a patient with drug-induced cholestasis. FIG. 4 illustrates the findings in the patient with inherited cholestasis; a person diagnosed with BRIC-1 (benign recurrent intrahepatic cholestasis), who was examined during a cholestatic episode with severe pruritus, hyperbilirubinemia and high plasma bile acid concentrations. […] Images from the second patient show similar changes.

[4] = Whole-body PET/CT biodistribution and dosimetry (OLINDA/EXM), Pig 2; type: in vivo; settings: for Absorbed dose estimate / Effective dose: Pig 2 (40 kg) extrapolated to 74-kg human; for Effective dose: ICRP 60
Description: For the biodistribution study, ^11C—CSar was administrated intravenously in Pig 2 followed by five whole-body PET scans with one minute between scans and with progressive increase of scan durations per bed-position, i.e. 1, 2, 3, 4 and 5 min, respectively. […] Other source organs (gallbladder, stomach, small intestines, and kidneys) had non-uniform radioactivity distribution and for these organs, the total activity was estimated using a large VOI encompassing all accumulated radioactivity. For each source organ, the time course of the non-decay-corrected total radioactivity was generated. Data were extrapolated from pig (40 kg) to human (74 kg) and recalculated into time courses of fractions of injected dose (% ID). Residence times were computed as the trapezoidal sum of the time course of % ID assuming that the radioactivity decayed only by physical decay after the last scan. Residence time for the rest of the body was calculated as the total body residence time (without voiding) minus the sum of the residence times from the source organs. The residence times were entered into OLINDA/EXM 1.0 (Stabin M G, Sparks R B, Crowe E. OLINDA/EXM: The second-generation personal computer software for internal dose assessment in nuclear medicine. J Nucl Med. 2005; 46:1023-1027) to compute absorbed doses using the male reference phantom and to obtain effective dose values according to ICRP 60.

[5] = Stability of the tracer in its final formulation; type: physicochemical; settings: up to 2.5 h after the end of the synthesis
Description: The three-step radiosynthesis provided 0.56-1.09 GBq of ^11C—CSar (5) with a radiochemical yield of 13±3% (mean±SD; n=7, decay-corrected) and with radiochemical purity >99% within 40 min. The radiochemical yield of the intermediate ^11C-cholylsarcosine methyl ester 4 was approximately 20% and the deprotection proceeded with full conversion to give ^11C—CSar exclusively.

[6] = Dynamic PET/CT with arterial blood sampling after intravenous ^11C—CSar in pigs; type: in vivo, pig
Description: Three pigs (3-month old female Danish Landrace and Yorkshire cross-breed; body weight 35-40 kg) were fasted for 18 h with free access to water. Each animal was premedicated with midazolam and s-ketamine, anaesthetized with a mixture of midazolam, s-ketamine and propofol, and mechanically ventilated as previously described (Sørensen M. Munk O L, Mortensen F V, et al. Hepatic uptake and metabolism of galactose can be quantified in vivo by 2-[^18F]fluoro-2-deoxy-galactose positron emission tomography. Am J Physiol Gastrointest Liver Physiol. 2008; 295:G27-G36). The animal was placed on a thermostatically-controlled heating blanket, keeping the rectal temperature 38.5-39.5° C. By adjusting the mechanical respiration, arterial blood pCO2, pO2, and pH were kept between 5.3-7.2 kPa, 12-25 kPa, and 7.35-7.45, respectively. Blood glucose was 5.0-6.7 mM. Catheters (Cordis) were inserted into the femoral vein and artery for intravenous administrations and blood sampling, respectively. After completion of the experiment, the animal was euthanized with an overdose of pentobarbital (100 mg/kg).
For PET/CT studies, the pig was placed on the back in a Siemens Biograph 64 Truepoint PET/CT camera with a 21 cm transaxial PET field-of-view. A CT scan (250 effective mAs with CAREDose4D, 120 kV, pitch 1.0, slice thickness 2.0 mm) was performed for definition of anatomical structures and attenuation correction of the PET recordings.
During the dynamic PET recordings of Pig 1 and 2, blood samples (0.5 mL) were collected from the femoral artery at 12×5, 6×10, 6×30, 5×60, 8×600 seconds. The radioactivity concentrations in the samples were measured in a well counter (Packard Biosciences) that was cross-calibrated to the PET camera. Additional blood samples were collected 2, 5, 10, 20, 40, 60, and 90 min after tracer administration for determination of ^11C-metabolites in plasma.

[7] = Plasma free fraction by ultrafiltration; type: in vitro ADME; settings: female, Danish Landrace and Yorkshire cross-breed, pig
Description: The plasma free fraction of ^11C—CSar was determined in plasma samples collected prior to tracer administration in all three pigs; moreover, plasma was collected 10 seconds after end of cholyltaurine infusion in Pig 1, i.e. before the ^11C—CSar administration. The plasma samples were mixed with aliquots of ^11C—CSar, pipetted into ultrafiltration units (Pall Nanosep Centrifugal Device, Cut-off 30,000 D, Sigma-Aldrich) and centrifuged at room temperature (10 min at 12,000 rpm). Radioactivity in plasma and ultrafiltrates were counted in the well counter. Filter retention of the tracer was determined using sodium phosphate buffer solution (35 mM; pH 7.2). The free fraction was calculated as the ratio of radioactivity concentration in the ultrafiltrate corrected for filter retention to the total radioactivity concentration in plasma.

[8] = cholyltaurine pretreatment vs. without

Molecule: C[C@H](CCC(=O)N(C)CC(=O)O)[C@H]1CC[C@H]2[C@@H]3[C@H](O)C[C@@H]4C[C@H](O)CC[C@]4(C)[C@H]3C[C@H](O)[C@]12C [CSar, N-methyl-cholylglycine]
toxicity to humans [1]: non-toxic | biotransformation during enterohepatic circulation ([1]; humans): without hepatic or intestinal biotransformation

decrease of liver tissue TAC with time [2, 8]: significantly slower | rate of increase of TAC in the choledochus [2, 8]: much slower rate | maximum value of choledochus TAC relative to that without pretreatment ([2]; pretreatment with cholyltaurine): 2% | maximum radioactivity concentration of liver tissue TAC compared to studies without cholyltaurine ([2]; pretreatment with cholyltaurine 286 mg/kg i.v.): approximately 40% | Absorbed dose estimate ([4]; Adrenals): 2.88 μGy/MBq | Absorbed dose estimate ([4]; Bone surface): 2.87 μGy/MBq | Absorbed dose estimate ([4]; Brain): 1.57 μGy/MBq | Absorbed dose estimate ([4]; Breasts): 1.66 μGy/MBq | Absorbed dose estimate ([4]; Gallbladder wall): 59.40 μGy/MBq | Absorbed dose estimate ([4]; Heart wall): 2.33 μGy/MBq | Effective dose [4]: 4.4 μSv/MBq | Effective dose ([4]; listed as 11C-CSar): 4.40 μSv/MBq | Absorbed dose estimate ([4]; Kidneys): 2.34 μGy/MBq | Absorbed dose estimate ([4]; Liver): 10.80 μGy/MBq | Absorbed dose estimate ([4]; Lower large intestine wall): 3.91 μGy/MBq | Absorbed dose estimate ([4]; Lungs): 2.06 μGy/MBq | Absorbed dose estimate ([4]; Muscle): 2.23 μGy/MBq | Absorbed dose estimate ([4]; Ovaries): 4.97 μGy/MBq | Absorbed dose estimate ([4]; Pancreas): 3.36 μGy/MBq | radioactivity in other organs, including the urinary bladder ([4]; Pig 2, whole-body PET scans): Virtually no radioactivity was detected | Absorbed dose estimate ([4]; Red marrow): 2.34 μGy/MBq | Absorbed dose estimate ([4]; Skin): 1.61 μGy/MBq | Absorbed dose estimate ([4]; Small intestine): 39.30 μGy/MBq | Absorbed dose estimate ([4]; Spleen): 2.37 μGy/MBq | Absorbed dose estimate ([4]; Stomach wall): 3.92 μGy/MBq | Absorbed dose estimate ([4]; Testes): 1.82 μGy/MBq | Absorbed dose estimate ([4]; Thymus): 1.88 μGy/MBq | Absorbed dose estimate ([4]; Thyroid): 1.78 μGy/MBq | Absorbed dose estimate ([4]; Total body): 2.83 μGy/MBq | Absorbed dose estimate ([4]; Upper large intestine wall): 7.07 μGy/MBq | Absorbed dose estimate ([4]; Urinary bladder wall): 2.67 μGy/MBq | Absorbed dose estimate ([4]; Uterus): 4.62 μGy/MBq | alterations in chemical or radiochemical purity [5]: no alterations | time to peak of liver TAC ([6]; Pig 1 and 2, after intravenous tracer): ≤ 3 min | uptake into liver tissue ([6]; Pig 1 and 2, intravenous, dynamic PET/CT): rapid uptake | time of appearance of radioactivity in the intrahepatic bile ducts ([6]; after ^11C—CSar administration): approximately one | time at which radioactivity in liver tissue and bile ducts increased again (enterohepatic circulation) ([6]; after administration of the tracer): about 75 min | time to peak radioactivity concentration in the choledochus ([6]; after tracer administration): 4 to 6 min | time for liver TAC to decrease to very low concentrations ([6]; pig, in vivo): 30 to 40 min | time of appearance of radioactivity in the choledochus ([6]; relative to appearance in intrahepatic bile ducts): one minute later | fraction unbound ([7]; plasma collected after administration of cholyltaurine (Pig 1)): 1 | fraction unbound ([7]; plasma collected before tracer administration, n=3): 0.18 ± 0.02
Molecule: C[C@H](CCC(=O)N([11CH3])CC(=O)O)[C@H]1CC[C@H]2[C@@H]3[C@H](O)C[C@@H]4C[C@H](O)CC[C@]4(C)[C@H]3C[C@H](O)[C@]12C [^11C—CSar, N-(3α,7α,12α-Trihydroxy-24-oxocholan-24-yl)-N—[^11C]methyl-glycine]
distribution of tracer on PET/CT 5 min after start of infusion [3]: still observed in the liver; also recorded: still ^11C—CSar in the liver | distribution of tracer on PET/CT 25 min after start of infusion [3]: accumulated in the liver and intrahepatic bile ducts | organs with high accumulation of tracer relative to surrounding tissue ([4]; Pig 2, whole-body PET scans): liver, gallbladder, stomach, and small intestines | peak radioactivity concentration of liver TAC ([6]; relative to arterial TAC): comparable to the peak concentration of the arterial TAC

Molecule: cholyltaurine [reference compound]
effect on hepatic uptake and biliary excretion of ^11C—CSar ([2]; 286 mg/kg intravenous 50-second infusion before tracer): markedly inhibited
